Source: the NIST ThermoML archive (doi:10.1021/je0342320)

Settings: Liquid, Vibrating tube method

CCCCCCCCCC [decane]
mass density [kg/m3]
Settings | 283.15 K | 288.15 K | 293.15 K | 298.15 K | 303.15 K | 308.15 K | 313.15 K | 318.15 K | 323.15 K | 328.15 K
100 kPa | 737.4 | 733.69 | 729.94 | 726.19 | 722.46 | 718.65 | 714.79 | 710.99 | 707.17 | 703.3
5000 kPa | 740.81 | 737.19 | 733.53 | 729.88 | 726.23 | 722.52 | 718.83 | 715.08 | 711.4 | 707.67
10000 kPa | 744.17 | 740.63 | 737.08 | 733.52 | 729.98 | 726.36 | 722.76 | 719.13 | 715.55 | 711.97
15000 kPa | 747.39 | 743.93 | 740.5 | 737 | 733.55 | 730.01 | 726.52 | 722.99 | 719.49 | 716.03
20000 kPa | 750.49 | 747.14 | 743.76 | 740.37 | 736.98 | 733.55 | 730.14 | 726.69 | 723.28 | 719.87
25000 kPa | 753.52 | 750.22 | 746.92 | 743.6 | 740.29 | 737.01 | 733.61 | 730.22 | 726.9 | 723.57
30000 kPa | 756.43 | 753.19 | 749.98 | 746.72 | 743.46 | 740.13 | 736.95 | 733.65 | 730.37 | 727.1
35000 kPa | 759.27 | 756.11 | 752.94 | 749.72 | 746.54 | 743.26 | 740.17 | 736.93 | 733.71 | 730.51
40000 kPa | 762.02 | 758.92 | 755.79 | 752.67 | 749.5 | 746.32 | 743.25 | 740.05 | 736.93 | 733.79

COC(=O)OC [dimethyl carbonate]
mass density [kg/m3]
Settings | 283.15 K | 288.15 K | 293.15 K | 298.15 K | 303.15 K | 308.15 K | 313.15 K | 318.15 K | 323.15 K | 328.15 K
100 kPa | 1083.17 | 1076.43 | 1069.76 | 1063.1 | 1056.41 | 1049.66 | 1042.86 | 1036.04 | 1029.21 | 1022.24
5000 kPa | 1087.33 | 1080.8 | 1074.22 | 1067.7 | 1061.17 | 1054.59 | 1047.94 | 1041.3 | 1034.63 | 1027.92
10000 kPa | 1091.39 | 1085.02 | 1078.58 | 1072.21 | 1065.82 | 1059.39 | 1052.91 | 1046.44 | 1039.95 | 1033.45
15000 kPa | 1095.34 | 1089.07 | 1082.76 | 1076.52 | 1070.29 | 1064 | 1057.67 | 1051.36 | 1045.04 | 1038.69
20000 kPa | 1099.13 | 1093 | 1086.83 | 1080.7 | 1074.59 | 1068.43 | 1062.22 | 1056.08 | 1049.91 | 1043.71
25000 kPa | 1102.79 | 1096.79 | 1090.73 | 1084.74 | 1078.74 | 1072.65 | 1066.6 | 1060.6 | 1054.58 | 1048.53
30000 kPa | 1106.39 | 1100.48 | 1094.5 | 1088.62 | 1082.75 | 1076.8 | 1070.82 | 1064.95 | 1059.07 | 1053.14
35000 kPa | 1109.85 | 1104.03 | 1098.19 | 1092.39 | 1086.6 | 1080.78 | 1074.93 | 1069.15 | 1063.39 | 1057.57
40000 kPa | 1113.17 | 1107.5 | 1101.74 | 1096.04 | 1090.35 | 1084.63 | 1078.87 | 1073.21 | 1067.56 | 1061.87
